Consider one molecule from BindingDB's records for doi:10.1016/j.bmcl.2017.11.040 (Hawaii Biotech, 2018).

In this assay the target is T1, Calmodulin-sensitive adenylate cyclase (Bacillus anthracis, UniProt P40136).
T1 sequence (P40136 whole entry): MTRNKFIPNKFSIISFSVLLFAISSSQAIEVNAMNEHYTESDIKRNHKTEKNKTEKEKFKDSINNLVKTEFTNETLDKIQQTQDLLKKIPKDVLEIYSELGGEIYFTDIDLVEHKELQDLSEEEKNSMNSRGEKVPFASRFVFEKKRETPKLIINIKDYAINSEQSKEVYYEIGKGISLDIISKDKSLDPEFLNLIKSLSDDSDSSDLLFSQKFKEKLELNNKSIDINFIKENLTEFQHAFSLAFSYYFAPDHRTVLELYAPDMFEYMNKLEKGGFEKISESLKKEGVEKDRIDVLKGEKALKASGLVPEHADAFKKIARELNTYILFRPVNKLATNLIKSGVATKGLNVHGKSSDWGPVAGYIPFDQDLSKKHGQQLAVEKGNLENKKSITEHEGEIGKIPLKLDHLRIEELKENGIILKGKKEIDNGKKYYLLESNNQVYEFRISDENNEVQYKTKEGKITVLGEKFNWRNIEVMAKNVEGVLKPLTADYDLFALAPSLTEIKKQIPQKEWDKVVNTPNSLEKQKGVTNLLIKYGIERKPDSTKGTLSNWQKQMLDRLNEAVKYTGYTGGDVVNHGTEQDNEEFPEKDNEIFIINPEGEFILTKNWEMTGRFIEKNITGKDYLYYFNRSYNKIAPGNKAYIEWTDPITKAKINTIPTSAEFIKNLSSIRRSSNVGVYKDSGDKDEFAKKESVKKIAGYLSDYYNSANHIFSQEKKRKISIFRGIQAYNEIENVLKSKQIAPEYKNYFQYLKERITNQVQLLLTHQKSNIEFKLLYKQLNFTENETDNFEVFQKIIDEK
The assay can be described thus: Inactivation of Bacillus anthracis edema factor in presence of CaM incubated for 10 to 240 mins by EnzChek pyrophosphate assay.

In the case of `Nc1cc(OC2CCN(C(=O)c3ccc(S(=O)(=O)F)cc3)CC2)ccn1`, the Ki turned out to be 59.1 µM.
